# Source: patent publication US20150183748A1, “METHODS OF TREATMENT AND PREVENTION OF NEURODEGENERATIVE DISEASES AND DISORDERS” (Thomas Jefferson University, priority 2007, published 2015)
# “Also recorded” adds a separate entry of the source.
# System: DM/HC pig model
# Assay: Diabetic/hypercholesterolemic (DM/HC) pig model: brain histology/IHC, weight and behaviour
# Assay type: in vivo
# Procedure: A diabetic/diabetic hypercholestrolemic pig model (DM/HC) was developed that mimics human-like atherosclerosis. Farm pigs weighing 25-30 kg and aged ˜4 months were made diabetic with a single intravenous injection of 125 mg/kg of streptozotocin (Sicor Pharmaceuticals, Irvine, Calif.). After stabilization for 1-2 weeks, the animals with elevated levels of plasma glucose (>150 mg/dl) were fed with atherogenic (high-fat) diet as shown in Table 1 (Animal Specialties, Quakertown, Pa.) to achieve a cholesterol level of approximately […] Maintenance of the cholesterol level was determined by method as shown in Table 2.
# On days 1-2, animals were fed normal chow, followed by on days 3-14 animals were fed a diet of 0.5% cholesterol, 2% lard and on day 14, cholesterol levels were measured and the diet adjusted accordingly to increase to 2% cholesterol, 10% lard if cholesterol is <300 mg/dl. Following induction of DM/HC, cholesterol was measured until cholesterol levels are stable between 300 and 800 mg/dl, and following cholesterol stabilization, cholesterol was measured monthly. If cholesterol levels were unstable following initial stabilization phase, the diet of the animal was returned to the initial two-week measurement schedule. Monthly cholesterol levels were determined, including levels of total cholesterol, LDL, HDL, VLDL and triglycerides.
# At one month after stabilization of cholesterol at 250-800 mg/d1, the animals were randomized into two experimental groups, DM/HC (hyperglycemia and hypercholesterolemia) group with no treatment and treatment group (10 mg/kg/day of SB-480848, also referred to as 1-(N-(2-(diethylamino)ethyl)-N-(4-(4-trifluoromethylphenyl)benzyl)-aminocarbonylmethyl)-2-(4-fluorobenzyl)thio-5,6-trimethylenepyrimidin-4-one). The animals were sacrificed at 6-month after the randomization. The animal protocol has been approved by the Institutional Animal Care and Use Committee of University of Pennsylvania.
# Two diabetic/hypercholesterolemic groups were evaluated: 1. DM/HC group and 2. DM/HC animals receiving Lp-PLA2 inhibitors. The experiments included: the control group (DM/HC group—17 pigs) and the experimental group (DM/HC animals receiving LP-PLA2 inhibitors—20 pigs). In addition blood cholesterol levels were maintained between 300 and 800 mg/dl in experimental animals, this range having been determined to provide a better test model. Blood cholesterol levels were monitored in all animals on a bimonthly basis, as shown in Table 4 and adjustments were made to the fat content of the feed accordingly, as shown in Table 2. The cholesterol and lard percent were in the range of 0.5-2% and 10-25%, respectively, and all animals received feed that contained cholesterol and lard concentration within that range. Blood samples were obtained at baseline, 1 month, 3 months, and 6 months. Less than 1 ml/kg of blood were obtained each time. At the bimonthly blood cholesterol levels tests, levels of total cholesterol, LDL, HDL, VLDL and triglycerides, blood glucose, Lp-PLA2 and […] (PBMCs) were tested (see Table 4).
# The animal number, selected to justify the minimum requirement for statistical validity were 2 groups of animals per experiment as follows: 1. Control group (n=17); Diabetic and hyperlipidemic; 2.
# Domestic farm pigs, Yorkshire boars, ranging in weight between 25-35 kg were purchased from a local farm and placed in indoor housing under the care of a veterinarian. They were castrated 3-5 days in advance of the study start date. Test pigs were made diabetic by infusing one dose of streptozocin (125 mg/kg) IV in a period of 30 min. […] To avoid the possible onset of initial hypoglycemia, 20 g of glucose powder was added to the feed for the […]. The blood glucose was measured using a glucometer every day before feeding for the first 14 days and then once a week.
# Test animals were housed separately from control animals to avoid inter-animal transfer of drug due to colcophagia. […]
# [1] = DM/HC pigs, 10 mg/kg/day, brain IHC for pig immunoglobulin
# [2] = DM/HC pigs, 10 mg/kg/day, observed during study period vs control non-treated animals
compound,measurement,setting,value
"CCN(CC)CCN(Cc1ccc(-c2ccc(C(F)(F)F)cc2)cc1)C(=O)Cn1c(SCc2ccc(F)cc2)nc(=O)c2c1CCC2 [Lp-PLA2 inhibitor, 1-(N-(2-(diethylamino)ethyl)-N-(4-(4-trifluoromethylphenyl)benzyl)-aminocarbonylmethyl)-2-(4-fluorobenzyl)thio-5,6-trimethylenepyrimidin-4-one]",activation of glial cells,"DM/HC pigs treated with Lp-PLA2 inhibitor, GFAP as marker",less activation of glial cells
same,Abeta42 accumulation in vascular SMCs (cerebrovascular amyloidosis),"DM/HC pigs, 10 mg/kg/day, Abeta-42 immunostaining of arterioles",little or no arterial Abeta-42 immunostaining; also recorded: prevented Abeta42 accumulation in vascular SMCs
same,Abeta-42 accumulation in neurons (immunoreactivity),"DM/HC pigs, 10 mg/kg/day, brain Abeta-42 immunostaining, n=6",immunonegative neurons for Abeta-42; also recorded: no neuronal Abeta-42 immunoreactivity
same,dendrite collapse,"DM/HC pigs, 10 mg/kg/day, brain IHC",no dendrite collapse
same,Ig binding to neurons,[1],no Ig binding to neurons
same,Ig leakage from blood vessels,[1],Ig is confined to the lumen of the blood vessels; also recorded: no Ig leakage from blood vessels
same,DM/HC-induced BBB leakage,"DM/HC pigs, 10 mg/kg/day, brain IHC for pig immunoglobulin, n=6",prevents BBB leakage; also recorded: negligible BBB leakage
same,sick neurons,"DM/HC pigs, 10 mg/kg/day, compared with non-treated animals",rarely observed
same,activity in the cage,[2],increased activity in the cage
same,response to feeding and handling,[2],respond more alertly to feeding and handling
same,responsiveness to external stimuli,[2],more responsive to external stimuli
